Results as given in ChEMBL document CHEMBL1201862, “PubChem BioAssay data set” (2004).
The source made the active and inactive calls.

Key:
[1] = biological target: Protein-tyrosine kinase 2-beta (Homo sapiens, UniProt Q14289);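 note: potency of inhibitors of PYK2 kinase phosphorylation of poly-GT substrate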
[2] = Luminescence Cell-Based Dose Confirmation HTS to Identify Inhibitors of Polyadenylation.; format: functional
[3] = Luminescence Cell-Based Dose Response HTS to Identify Activators of Luciferase Translation or Activity in H4 […] Cells. [Related pubchem assays: 1829 (Project Summary), 1814 (Primary HTS)]; format: functional
[4] = Luminescence Cell-Based Dose Confirmation HTS to Identify Activators of 5'UTR Stem-Loop Driven Alpha-Synuclein mRNA Translation in H4 Neuroglioblastoma Cells. [Related pubchem assays: 1829 (Project Summary), 1814 (Primary HTS)]; format: functional
[5] = general cell-killing toxicity readout – plate reader, dry powder samples, cytotoxicity control for PAX8 inhibitor project, dose response (AID 743021); format: functional, cell-based
H4 = assay: Luminescence Cell-Based Dose Response HTS to Identify Activators of 5'UTR Stem-Loop Driven Prion Protein mRNA Translation in H4 Neuroglioblastoma Cells. [Related pubchem assays: 1829 (Project Summary), 1814 (Primary HTS)]; format: functional; settings: Homo sapiens
[6] = biological target: Luciferin 4-monooxygenase (Photinus pyralis, UniProt P08659); assay: inhibition of purified Photinus pyralis luciferase – biochemical, luminescence, dose response (AID 1891)
[7] = Luminescence-based cell-based high throughput dose response assay to identify activators of the DAF-12 from the parasite S. stercoralis (ssDAF-12).; format: functional
Protein skinhead-1 = biological target: T1, Protein skinhead-1 (Caenorhabditis elegans, UniProt P34707); format: functional
T1 sequence (P34707 whole entry): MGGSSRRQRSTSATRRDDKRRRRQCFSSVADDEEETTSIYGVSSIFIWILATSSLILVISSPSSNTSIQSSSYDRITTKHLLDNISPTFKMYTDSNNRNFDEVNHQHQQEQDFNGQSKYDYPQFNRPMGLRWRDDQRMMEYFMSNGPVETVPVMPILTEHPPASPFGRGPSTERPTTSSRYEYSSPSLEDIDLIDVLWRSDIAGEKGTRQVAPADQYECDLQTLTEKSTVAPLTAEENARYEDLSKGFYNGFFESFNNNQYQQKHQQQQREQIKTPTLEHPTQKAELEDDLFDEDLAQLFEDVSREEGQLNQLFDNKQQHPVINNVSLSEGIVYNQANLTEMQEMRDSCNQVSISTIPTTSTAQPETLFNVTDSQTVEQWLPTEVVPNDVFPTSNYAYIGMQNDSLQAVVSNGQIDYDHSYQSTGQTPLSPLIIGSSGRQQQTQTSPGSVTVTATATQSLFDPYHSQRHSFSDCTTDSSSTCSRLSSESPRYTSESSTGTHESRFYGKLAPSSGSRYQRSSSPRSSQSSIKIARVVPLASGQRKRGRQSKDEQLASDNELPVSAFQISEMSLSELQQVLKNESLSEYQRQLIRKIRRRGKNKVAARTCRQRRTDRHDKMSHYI

[8] = Luminescence Cell-Based Dose Confirmation HTS to Identify Inhibitors of Platelet Dense Granule Release. [Related pubchem assays: 1663 (Primary HTS), 1678 (Summary of Project)]; format: functional
[9] = biological target: T2, Oxysterols receptor LXR-beta (Homo sapiens, UniProt P55055); format: functional, cell-based;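 note: Cell-based luminescence dose-response assay of agonist activity at LXR, run as a confirmatory counterscreen to a daf-12 agonist screen; agonist potency from rising luciferase signal of a Gal4-LXR reporter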
T2 sequence (P55055 whole entry): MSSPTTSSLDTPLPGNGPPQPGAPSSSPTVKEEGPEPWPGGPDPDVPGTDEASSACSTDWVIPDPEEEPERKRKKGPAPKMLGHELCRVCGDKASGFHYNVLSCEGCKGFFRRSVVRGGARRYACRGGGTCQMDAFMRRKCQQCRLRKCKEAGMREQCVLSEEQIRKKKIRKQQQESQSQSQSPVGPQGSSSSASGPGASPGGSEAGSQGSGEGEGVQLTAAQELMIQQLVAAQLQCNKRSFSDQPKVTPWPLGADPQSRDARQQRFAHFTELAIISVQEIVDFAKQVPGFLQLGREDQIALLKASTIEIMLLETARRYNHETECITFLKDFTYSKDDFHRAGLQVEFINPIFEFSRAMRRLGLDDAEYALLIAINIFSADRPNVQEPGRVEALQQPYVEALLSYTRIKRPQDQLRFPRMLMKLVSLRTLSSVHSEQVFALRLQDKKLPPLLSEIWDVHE

[10] = biological target: T2, Oxysterols receptor LXR-beta; assay: LXR agonists, Gal4 luciferase reporter, dose response, counter-screen for ssDAF-12 agonist project, cell-based, luminescence, HEK293, S. stercoralis campaign (AID 720737); format: functional; settings: read-out: IC50 (the source's name)
[11] = reduced cellular PGC1a acetyl-lysine signal – cell-based, cherry-picked samples, dose response (AID 720514); format: functional;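 note: potency may reflect raised or lowered acetylation signal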
[12] = M. tuberculosis H37Rv growth inhibitors, H37Rv strain (AID 1626); format: functional
[13] = viability loss in A549 lung cancer cells – cell-based, cherry-picks, […], cytotoxicity control, dose response (AID 1053119); format: functional
Prothrombin = Prothrombin (Homo sapiens, UniProt P00734); assay: Thrombin 1536 HTS Dose Response Confirmation. [Related pubchem assays: 1046 (Thrombin 1536 HTS; hits were confirmed in this assay)]; format: functional
[14] = viability loss in HEK293 cells – cell-based, plate reader, cherry-picked samples, cytotoxicity control, dose response (AID 743446); format: functional
[15] = toxicity toward HepG2 liver cells – cell-based, plate reader, cherry-pick, antagonist series, cytotoxicity control, dose response (AID 743416); format: functional
[16] = blockade of melanocortin 4 receptor signaling – cell-based, plate reader, cherry pick, counter-screen for LGR2 antagonist project, dose response (AID 743444); format: functional;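 note: transfected HEK 293 cells stimulated with alpha-MSH peptide; potency of inhibitors of the alpha-MSH evoked signal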
[17] = A549 cell cytotoxicity, dose response, cytotoxicity control, plate reader, cherry-pick, antagonist series (AID 743412); format: functional, cell-based
[18] = biological target: E3 ubiquitin-protein ligase Mdm2 (Homo sapiens, UniProt Q00987); assay: MDM2-luc reporter signal enhancers, multi-concentration potency testing, MDM2 ubiquitin-protein ligase inhibitor program, whole-cell format, luminescence detection, 384-well microplate (AID 1394); format: functional;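 note: MDM2 E3 inhibitors raise luminescence so EC50 is for signal enhancement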
Sequence of E3 ubiquitin-protein ligase Mdm2 (Q00987 whole entry): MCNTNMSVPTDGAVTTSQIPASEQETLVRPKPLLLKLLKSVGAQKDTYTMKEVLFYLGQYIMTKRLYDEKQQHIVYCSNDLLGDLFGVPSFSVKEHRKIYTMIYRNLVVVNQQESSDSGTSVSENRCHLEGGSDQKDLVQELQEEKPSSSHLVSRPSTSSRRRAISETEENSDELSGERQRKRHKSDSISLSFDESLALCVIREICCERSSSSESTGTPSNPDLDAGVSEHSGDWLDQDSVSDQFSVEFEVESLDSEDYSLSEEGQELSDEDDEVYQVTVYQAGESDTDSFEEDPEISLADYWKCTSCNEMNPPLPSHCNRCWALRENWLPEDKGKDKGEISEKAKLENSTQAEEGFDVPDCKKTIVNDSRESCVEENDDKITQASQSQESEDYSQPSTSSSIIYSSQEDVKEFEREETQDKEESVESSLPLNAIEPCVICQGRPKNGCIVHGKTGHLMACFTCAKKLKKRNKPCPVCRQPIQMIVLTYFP

Sequence of Luciferin 4-monooxygenase (P08659 whole entry): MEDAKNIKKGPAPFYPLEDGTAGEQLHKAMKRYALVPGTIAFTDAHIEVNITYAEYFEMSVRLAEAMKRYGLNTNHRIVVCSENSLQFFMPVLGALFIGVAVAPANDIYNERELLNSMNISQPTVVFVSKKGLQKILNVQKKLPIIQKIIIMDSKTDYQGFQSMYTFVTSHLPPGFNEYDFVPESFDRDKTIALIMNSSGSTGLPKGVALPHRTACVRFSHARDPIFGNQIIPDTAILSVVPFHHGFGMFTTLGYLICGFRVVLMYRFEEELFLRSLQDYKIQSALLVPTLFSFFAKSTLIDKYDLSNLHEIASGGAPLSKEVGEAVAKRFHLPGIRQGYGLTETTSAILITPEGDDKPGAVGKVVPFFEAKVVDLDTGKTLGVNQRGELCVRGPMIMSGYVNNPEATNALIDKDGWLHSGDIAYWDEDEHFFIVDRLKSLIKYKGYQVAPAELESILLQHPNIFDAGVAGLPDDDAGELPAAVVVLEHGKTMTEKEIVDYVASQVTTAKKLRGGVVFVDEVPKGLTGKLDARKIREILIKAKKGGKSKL
Sequence of Protein-tyrosine kinase 2-beta (Q14289 whole entry): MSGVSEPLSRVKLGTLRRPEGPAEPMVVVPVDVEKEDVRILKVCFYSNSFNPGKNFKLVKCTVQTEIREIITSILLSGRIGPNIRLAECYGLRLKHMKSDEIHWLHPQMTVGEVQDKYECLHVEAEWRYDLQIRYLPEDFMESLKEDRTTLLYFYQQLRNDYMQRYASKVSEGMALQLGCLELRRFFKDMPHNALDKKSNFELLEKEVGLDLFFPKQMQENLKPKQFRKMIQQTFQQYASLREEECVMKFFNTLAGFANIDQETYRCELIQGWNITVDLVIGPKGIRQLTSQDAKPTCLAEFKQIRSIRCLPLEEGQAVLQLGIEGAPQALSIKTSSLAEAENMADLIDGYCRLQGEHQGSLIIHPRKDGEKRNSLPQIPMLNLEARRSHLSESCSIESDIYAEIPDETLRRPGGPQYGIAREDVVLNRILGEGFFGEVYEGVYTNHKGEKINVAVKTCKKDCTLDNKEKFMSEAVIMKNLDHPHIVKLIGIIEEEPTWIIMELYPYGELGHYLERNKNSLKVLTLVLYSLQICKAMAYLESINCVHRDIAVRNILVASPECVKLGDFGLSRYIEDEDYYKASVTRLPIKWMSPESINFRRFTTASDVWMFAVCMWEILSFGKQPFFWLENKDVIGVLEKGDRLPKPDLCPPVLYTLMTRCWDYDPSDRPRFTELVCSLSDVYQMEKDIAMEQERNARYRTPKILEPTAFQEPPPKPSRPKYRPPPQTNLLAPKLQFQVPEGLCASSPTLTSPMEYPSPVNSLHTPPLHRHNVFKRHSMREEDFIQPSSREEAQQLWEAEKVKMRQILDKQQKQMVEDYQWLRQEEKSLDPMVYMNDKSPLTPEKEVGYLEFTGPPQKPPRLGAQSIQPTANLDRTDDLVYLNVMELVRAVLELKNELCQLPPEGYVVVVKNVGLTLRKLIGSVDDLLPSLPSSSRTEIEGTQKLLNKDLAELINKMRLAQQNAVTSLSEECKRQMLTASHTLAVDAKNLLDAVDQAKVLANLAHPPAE

COCCN(Cc1ccccc1)P(=O)(O)c1ccccc1OCC(=O)O
IC50 [1]: 7.64 µM (active)

COC(=O)c1cc(C(=O)N2CCN(c3cccc(C)c3C)CC2)cc([N+](=O)[O-])c1
EC50 [2]: > 120 µM (not active)

O=C(CSc1ncccc1-c1nc2ccccc2[nH]1)N1CCc2ccccc21
EC50 [3]: 4.81 µM (active) | EC50 [4]: 15.1 µM (active) | AC50 [5]: 59.9 µM (active) | EC50 (H4): 21.1 µM (inconclusive)

COc1cccc(-c2nc(-c3cccs3)no2)c1
EC50 [6]: > 112 µM (not active) | IC50 [7]: > 67.6 µM (inactive) | EC50 (cells): > 67.6 µM (inactive) | IC50 (Protein skinhead-1): > 100 µM (inactive) | EC50 [8]: > 112 µM (not active) | EC50 [9]: > 67.6 µM (inactive) | EC50 [10]: > 67.6 µM (inactive)

O=C(/C=C/c1ccc(N2CCCCC2)c([N+](=O)[O-])c1)c1ccc(O)cc1
AC50 [11]: 28.1 µM (active)

CC(=O)Nc1ccc(Nc2cc(C)nc3c(-c4ccccc4)c(C)nn23)cc1
IC50 [12]: > 100 µM (active)

Cc1ccn2cc(-c3ccc(NC(=O)c4ccco4)cc3)nc2c1
AC50 [13]: > 52 µM (inactive)

Cn1c(=O)c(C(=O)NNC(=O)c2ccccc2Cl)c(O)c2ccccc21
EC50 [2]: > 120 µM (not active)

N=C(NOC(=O)c1ccccc1Cl)c1ccccc1
IC50 [7]: > 67.6 µM (inactive) | EC50 (cells): > 67.6 µM (inactive)

NC(=NOC(=O)c1ccccc1Cl)c1ccccc1
EC50 [9]: > 67.6 µM (inactive) | EC50 [10]: > 67.6 µM (inactive)

CSc1nc(-c2ccccc2)nn1C(=O)c1ccco1
IC50 (Prothrombin): 0.3 µM (active)

Cc1ccc2c(c1)C1CN(C)CCC1N2C(=O)c1cn(-c2ccccc2)nc1-c1ccccc1 (stereo not drawn)
AC50 [14]: 35.3 µM (active) | AC50 [15]: > 52 µM (inactive) | IC50 (Prothrombin): 3.04 µM (active) | AC50 [16]: 55.6 µM (active) | AC50 [17]: 36.4 µM (active)

O=C1NC(=O)c2cc(NC(=O)C3COc4ccccc4O3)ccc21 (stereo not drawn)
EC50 [18]: 6.75 µM (not active)
